The values below come from patent US12527753B2, “Cysteamine for the treatment, mitigation and prevention of coronaviral, e.g., SARS-CoV-2, infections” (The Regents of the University of Michigan, priority 2020, dated 2026).

What all share (assay): Virus pre-incubation, plaque formation in TMPRSS cells
Holding throughout (type): cell-based

In one experiment the test system is SARS-CoV-2 Delta variant. As to conditions: 10 mM; for inhibition at 10000 µM: read-out: inhibition / inactivation.
Another experiment deals with SARS-CoV-2 variant beta. As to conditions: Severe acute respiratory syndrome coronavirus 2, 2 h; 5 mM, 120 min incubation.
The test system of a further experiment is SARS-CoV-2 variant alpha. As to conditions: Severe acute respiratory syndrome coronavirus 2, 2 h; 5 mM, 120 min incubation.
In another experiment the test system is SARS-CoV-2 variant gamma. As to conditions: Severe acute respiratory syndrome coronavirus 2, 2 h; 5 mM, 120 min incubation.

Counter-ions that a name gives are not always drawn. Like-named read-outs stand apart in the source and are kept apart here.

As to `NCCS` [cysteamine HCl], the inhibition at 10000 µM is 100% in the experiment with SARS-CoV-2 Delta variant (Severe acute respiratory syndrome coronavirus 2, 2 h, 120 min incubation) and 85% in the experiment on SARS-CoV-2 Delta variant (Severe acute respiratory syndrome coronavirus 2, 15 min incubation, sustained through 90 minutes). The inhibition at 5000 µM with SARS-CoV-2 variant beta, in the experiment on SARS-CoV-2 variant alpha and in the experiment with SARS-CoV-2 variant gamma was 85 to 95% in each case.

Regarding 2-aminoethanethiol [cysteamine], the inhibition / inactivation in the experiment with SARS-CoV-2 Delta variant (15 min incubation, sustained through 90 minutes) is recorded as 85%; with SARS-CoV-2 Delta variant (120 min incubation) it was 100%.
